Source: US6037335A, “Phosphonate-nucleotide ester derivatives” (Mitsubishi Chemical Corporation, priority 1993, dated 2000)
Like-named read-outs stand apart in the source and are kept apart here.

How the values were obtained:
[1] = test system: HBV; experiment: Inhibition of HBV growth (HBV-DNA synthesis in HB611 cells, southern blotting); format: cell-based; set-up: dose or concentration left out as unconfirmed; details: Hepatitis B virus, 408 h, DNA recovered day 17
Experimental: (§1) HB611 cells (recombinant human lever cancer cell producing HBV, 2×10^4) was incubated on Dulbecco ME medium containing bovine fetal serum, streptomycin ([…]), penicillin (100 IU/ml) and G-418 (0.2 mg/ml) at 37° C. On the 2nd and 5th days of cultivation, the medium was changed, then the media containing specimens at final concentration of 10 mM were substituted on the 8th, 11th and 14th days. On 17 days of cultivation, DNA of the cell was recovered. The amount of HBV-DNA was measured by southern blotting, and inhibition of HBV-DNA synthesis in the cell was determined. In addition, the concentration of the compound required for 50% death of the HB611 cells was determined.

[2] = Concentration required for 50% death of HB611 cells; format: cell-based; details: human, read-out: LD50 of HB611 cell
Experimental: as §1

[3] = test system: HBV; experiment: Inhibition of HBV growth in rat serum upon oral administration (HB611 cells cultured with 5% serum); format: in vivo; details: Hepatitis B virus, read-out: HBV-DNA Synthesis Inhibition; for inhibition at 500 mg/kg: single oral dose 0.5 g/kg
Experimental: (§2) Inhibition of HBV growth in rat or mouse serum upon oral administration
(§3) Groups of rats (3 rats per group) were received single oral dose of specimen (1 g/kg or 0.5 g/kg), bled at 1 hour after administration and serum was prepared. Separately, groups of mice (3 mice per group) were received single oral dose of specimen (0.3 g/kg), bled at 30 minutes after administration and serum was prepared.
(§4) HB611 cells (2×10^4) were incubated on Dulbecco ME medium containing 10% bovine fetal serum, streptomycin ([…]), penicillin (100 IU/ml) and G-418 (0.2 mg/ml) at 37° C. On the 2nd and 5th days of cultivation, the medium was changed, then substituted with a medium containing 5% of the above serum (rat or mouse serum after oral administration of the specimen) on the 8th, 11th and 14th day, and DNA of the cell was recovered on the 17th days of cultivation. The amount of HBV-DNA was measured by southern blotting, and intracellular HBV-DNA synthesis inhibition was determined. For reference, the same experiment was conducted on PMEA.

[4] = test system: HBV; experiment: Inhibition of HBV growth in mouse serum upon oral administration (HB611 cells cultured with 5% serum); format: in vivo; details: Hepatitis B virus, HB611, 0.5 h, single oral dose 0.3 g/kg, serum 30 minutes after administration, 5% serum in medium, read-out: HBV-DNA Synthesis Inhibition
Experimental: as §2, §3, §4

[5] = test system: hepatitis B virus; details: literature; cited from earlier work
[6] = test system: herpes simplex viruses type-I (HSV-1); details: literature; cited from earlier work
[7] = test system: herpes simplex viruses type-II (HSV-2); details: literature; cited from earlier work
[8] = test system: human immunodeficiency virus (HIV); details: literature; cited from earlier work
[9] = HB611, Rat, single oral dose 1 g/kg, serum 1 hour after administration, 5% serum in medium
[10] = HB611, Rat, serum 1 hour after administration, 5% serum in medium

SMILES | inhibition [1] | CC50 [2] | also measured
Nc1ncnc2c1ncn2CCOCP(=O)(OCC(F)(F)F)OCC(F)(F)F [Example 1, 9-[2-[bis(2,2,2-trifluoroethyl)phosphonylmethoxy]ethyl]adenine] | 91.5% | > 1000 µM | inhibition at 1000 mg/kg [3, 9]: 89.9%
Nc1nc(N)c2ncn(CCOCP(=O)(OCC(F)(F)F)OCC(F)(F)F)c2n1 [Example 2, 9-[2-[bis(2,2,2-trifluoroethyl)phosphonylmethoxy]ethyl]-2,6-diaminopurine] | 99.9% | 840 µM | inhibition at 1000 mg/kg [3, 9]: 71.9%
Nc1nc(Cl)c2ncn(CCOCP(=O)(OCC(F)(F)F)OCC(F)(F)F)c2n1 [Example 3, 9-[2-[bis(2,2,2-trifluoroethyl)phosphonylmethoxy]ethyl]-2-amino-6-chloropurine] | 99.9% | 399 µM | inhibition at 300 mg/kg [4]: 99.9%
Nc1nc(Cl)c2c(ncn2CCOCP(=O)(OCC(F)(F)F)OCC(F)(F)F)n1 [Example 4, 7-[2-[bis(2,2,2-trifluoroethyl)phosphonylmethoxy]ethyl]-2-amino-6-chloropurine] |  |  | inhibition at 300 mg/kg [4]: 36.3%
Nc1nc(N)c2nnn(CCOCP(=O)(OCC(F)(F)F)OCC(F)(F)F)c2n1 [Example 5, 9-[2-[bis(2,2,2-trifluoroethyl)phosphonylmethoxy]ethyl]-8-aza-2,6-diaminopurine] | 97.2% |  | inhibition at 300 mg/kg [4]: 87.2%
COP(=O)(COCCn1cnc2c(N)ncnc21)OCC(F)(F)F (centres unmarked) [Example 12, 9-[2-[methyl(2,2,2-trifluoloethyl)phosphonylmethoxy]ethyl]adenine] |  | > 1000 µM | inhibition at 1000 mg/kg ([3]; HB611, po, 1 h): 92.9%
COP(=O)(COCCn1cnc2c(N)nc(N)nc21)OCC(F)(F)F (centres unmarked) [Example 13, 9-[2-[methyl(2,2,2-trifluoloethyl)phosphonylmethoxy]ethyl]-2,6-diaminopurine] |  | > 1000 µM | inhibition at 1000 mg/kg ([3]; HB611, po, 1 h): 77.7%
COCCOP(=O)(COCCn1cnc2c(N)ncnc21)OCCOC [Example 14] | 55% | > 1000 µM | inhibition at 500 mg/kg [3, 10]: 25.4%
Nc1ncnc2c1ncn2CCOCP(=O)(OCCOc1ccccc1)OCCOc1ccccc1 [Example 15, 9-[[2-bis(2-phenoxyethyl)phosphonylmethoxy]ethyl]adenine] | 59.7% | 174 µM | inhibition at 500 mg/kg [3, 10]: 38.5%
Nc1ncnc2c1ncn2CCOCP(=O)(OCCOCc1ccccc1)OCCOCc1ccccc1 [Example 16, 9-[[2-bis(2-benzyloxyethyl)phosphonylmethoxy]ethyl]adenine] | 57.8% | 178 µM | inhibition at 500 mg/kg [3, 10]: 43.6%
CC(=O)OCCOP(=O)(COCCn1cnc2c(N)ncnc21)OCCOC(C)=O [Example 17, 9-[[2-bis(2-acetoxyethyl)phosphonylmethoxy]ethyl]adenine] | 66.2% | > 1000 µM | 
CCCCC(=O)OCCOP(=O)(COCCn1cnc2c(N)ncnc21)OCCOC(=O)CCCC [Example 18, 9-[[2-bis(2-valeryloxyethyl)phosphonylmethoxy]ethyl]adenine] | 73.4% | 47 µM | inhibition at 500 mg/kg [3, 10]: 61.4%
Nc1nc2c(ncn2CCOCP(=O)(OCC(F)(F)F)OCC(F)(F)F)c(=O)[nH]1 [Example 20] | 99.9% |  | inhibition at 300 mg/kg [4]: 99.9%
Nc1nc2ncn(CCOCP(=O)(OCC(F)(F)F)OCC(F)(F)F)c2c(=O)[nH]1 [Example 21, 7-[2-[bis(2,2,2-trifluoroethyl)phosphonylmethoxy]ethyl]guanine] | 71.3% |  | 
Nc1c2ncn(CCOCP(=O)(OCC(F)(F)F)OCC(F)(F)F)c2nc[n+]1[O-] [Example 22] | 76.2% |  | inhibition at 300 mg/kg [4]: 15.2%
Nc1nc2c(ncn2CCOCP(=O)(OCC(F)(F)F)OCC(F)(F)F)c(=S)[nH]1 [Example 23, 9-[2-[bis(2,2,2-trifluoroethyl)phosphonylmethoxy]ethyl]-6-thioguanine] | 86.1% |  | 
Cc1ccc(Sc2nc(N)nc3c2ncn3CCOCP(=O)(OCC(F)(F)F)OCC(F)(F)F)cc1 [Example 24, 9-[2-[bis(2,2,2-trifluoroethyl)phosphonylmethoxy]ethyl]-2-amino-6-p-toluylthiopurine] | 99.9% |  | 
Cc1ccc(Sc2nc(O)nc3c2ncn3CCOCP(=O)(OCC(F)(F)F)OCC(F)(F)F)cc1 [Example 25, 9-[2-[bis(2,2,2-trifluoroethyl)phosphonylmethoxy]ethyl]-2-hydroxy-6-p-toluylthiopurine] | 99.9% |  | 
Cn1c(N)nc2c(ncn2CCOCP(=O)(OCC(F)(F)F)OCC(F)(F)F)c1=O [Example 26, 9-[2-[bis(2,2,2-trifluoroethyl)phosphonylmethoxy]ethyl]-1-methylguanine] | 99.9% |  | 
Nc1nc(N)c2ncn(CCOCP(=O)(O)O)c2n1 [PMDAP, 9-(2-phosphonylmethoxy)ethyl-2,6-diaminopurine] |  |  | reported to be effective on hepatitis B virus [5]: effective; reported to be effective on herpes simplex virus type-I [6]: effective; reported to be effective on herpes simplex virus type-II [7]: effective; reported to be effective on human immunodeficiency virus [8]: effective
Nc1ncnc2c1ncn2CCOCP(=O)(O)O [PMEA, 9-(2-phosphonylmethoxy)ethyladenine] |  |  | reported to be effective on hepatitis B virus [5]: effective; reported to be effective on herpes simplex virus type-I [6]: effective; reported to be effective on herpes simplex virus type-II [7]: effective; inhibition at 1000 mg/kg ([3]; HB611, po, 1 h): 35.5%; reported to be effective on human immunodeficiency virus [8]: effective
CC(=O)NCCOP(=O)(COCCn1cnc2c(N)ncnc21)OCCNC(C)=O [Reference Example 1, 9-[[2-bis(2-acetamidethyl)phosphonylmethoxy]ethyl]adenine, reference compound] |  | > 1000 µM | inhibition at 500 mg/kg [3, 10]: 0%
Nc1ncnc2c1ncn2CCOCP(=O)(OCCO)OCCO [Reference Example 2, 9-[[2-bis(2-hydroxyethyl)phosphonylmethoxy]ethyl]adenine, reference compound] | 31% | > 1000 µM | inhibition at 500 mg/kg [3, 10]: 0%
